Laboratory results published in the METLIN SMRT retention time set (Domingo-Almenara et al. 2019).

Assay: gradient 5% acetonitrile 3 min, to 50% in 2 min, to 85% in 15 min, held 3 min, 100 µL/min
Details: column: Zorbax Extend-C18 2.1 x 50 mm; eluents: water / acetonitrile, 0.1% formic acid
Summary of the method: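 Values are retention times taken from adduct peaks that software picked and an analyst inspected. The pure standards were run as mixtures of ~100 molecules on HPLC linked to a quadrupole time-of-flight mass spectrometer, in positive and negative ionization mode. A Zorbax Extend-C18 column (2.1 × 50 mm, 1.8 μm) was used at 100 μL/min with water and acetonitrile, each including 0.1% formic acid.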

Structure (SMILES)	RP-LC retention time
Cc1ccc(-n2c(=O)n(CC(=O)NCCN3CCCCC3)c3cccnc32)cc1	616 s
CCOc1ccc(/C=C/C(=O)Nc2nc(-c3ccc4c(c3)NC(=O)C(C)O4)c(C)s2)cc1OC (centres undefined)	980 s
CCOc1ccccc1-c1noc(CN2N=NC3C(=O)N(c4ccc(OC)c(OC)c4)C(=O)C32)n1 (centres undefined)	868 s
Cc1ccc(-c2nc(-c3ccc4c(c3)nc(C)c(=O)n4C)no2)cc1	1090 s
FC(F)Sc1ccc(-c2cn3cc(Cl)ccc3n2)cc1	841 s
CN(CCc1noc(-c2ccc(F)cc2)n1)C(=O)NCCc1ccccc1	909 s
O=C(NCc1ccccc1)C1(CCO)CC12CCOCC2 (centres undefined)	627 s
O=[N+]([O-])c1ccc(NN=C(c2ccccc2)c2ccccc2)nc1	1300 s
CCNC(=O)c1cn(-c2ccc(NC(=O)CC(C)C)cn2)cn1	658 s
CN(C)c1nccnc1OC1CCN(C(=O)C2CCCCC2)C1 (centres undefined)	765 s
Cc1ccc(S(=O)(=O)NC(=O)NC2=NC(C)(C)N(c3ccc(Cl)c(Cl)c3)C(N)=N2)cc1	733 s
O=C(CCc1ccccc1)NCC(=O)Nc1nc2ccccc2[nH]1	640 s
Cc1cc2c(cc1S(=O)(=O)N1CCN(c3ccccn3)CC1)n(C)c(=O)n2C	606 s
Cc1cc(C)cc(NC(=O)C2CCN(S(=O)(=O)c3cc(-c4noc(C)n4)cs3)CC2)c1	953 s
Cc1cn2c(CCC(=O)NCCOc3ccc(F)cc3)csc2n1	566 s
O=S(=O)(Nc1cccn2ncnc12)c1ccccc1Cl	742 s
COc1ccc(C)cc1NC(=O)Cn1c(=O)c(CCC(=O)NCC(C)C)nc2ccccc21	852 s
Cc1cc(C)cc(NS(=O)(=O)c2cc(-c3nc(C(C)C)cs3)cs2)c1	1210 s
Cc1ccc(NS(=O)(=O)c2cc(-c3[nH]ncc3C(=O)N(C)C)oc2C)cc1	690 s
CCn1ccc2c(cc(C(=O)Nc3ccc(OC)cc3OC)n2C)c1=O	692 s
Cc1nc(-c2ccccc2)cc2nn(CC(=O)Nc3ccc4c(c3)OCO4)c(=O)n12	719 s
Cc1ccc2[nH]cc(CCNC(=O)c3ccc4nc(C(C)C)oc4c3)c2c1	925 s
Cc1ccc2[nH]c(=O)c(CCC(=O)NCCCN3CCCC3=O)cc2c1	608 s

Structure (SMILES)	RP-LC retention time
CN(CCc1noc(COc2cccc(C(F)(F)F)c2)n1)C(=O)c1cccs1	941 s
CN1CCN(CCCNC(=O)c2ccc(NC(=O)C3=CSCCO3)cc2)CC1	876 s
Cc1ccccc1NS(=O)(=O)c1cc2c3c(c1)CCC(=O)N3CCC2	967 s
O=C(Nc1ccc(Cl)cc1)C1(c2cccs2)CCOCC1	976 s
Cc1ccc(-c2nc3ncccn3c2Nc2cc(C)cc(C)c2)cc1	866 s
Cc1ccc(-n2nc3c(N4CCCC(C(=O)N5CCc6ccccc65)C4)nnc(C)c3c2C)cc1 (centres undefined)	830 s
CC1(C)SC2C(NC(=O)COc3ccccc3)C(=O)N2C1C(=O)O (centres undefined)	821 s
CCCn1cc(S(=O)(=O)CC(=O)Nc2ccc(C(=O)OCC)cc2)c2ccccc21	890 s
CCCn1cc(CCNC(=O)Nc2ccc(C)cc2C)c2cccnc21	781 s
CC(C)Oc1ccc(CN2CC[C@]3(CO)CN(Cc4ccccc4)C[C@@H]3C2)cc1	718 s
CCCN(C)C(=O)c1ccc2nc(-c3ccccc3)cn2c1	618 s
O=S(=O)(c1cc(-c2nnc(C3CCC3)o2)co1)N1CCN(c2ccccn2)CC1	671 s
CC(=O)c1cccc(NC(=O)N2C[C@H](c3nc(-c4ccncc4)no3)[C@@H](C)C2)c1	674 s
COc1ccc(CCN)cc1	574 s
CC(COc1ccc(C(C)C)cc1)NC(=O)c1cccs1 (centres undefined)	998 s
Cc1ccc(CNC(=O)C2(C)CCCN(S(=O)(=O)c3ccccc3)C2)cc1 (centres undefined)	960 s
O=C(CSc1nc2ccsc2c(=O)n1-c1ccc(F)cc1)Nc1ncn[nH]1	667 s
CNC(=O)c1ccc(-c2nc3cc(NS(=O)(=O)c4ccc(F)cc4F)ccc3n2C)cc1	645 s
CCCn1ncc(N2CCC(C(=O)N3CCN(C(C)=O)CC3)CC2)cc1=O	591 s
COc1ccc(-c2csc(NC(=O)CCn3c(=O)sc4ccccc43)n2)cc1	982 s
COC(=O)c1ccc(NS(=O)(=O)c2cc3n(c2)CCN(C(C)C)C3=O)cc1	731 s
Cc1ccc(Nc2c(-c3cccc(Cl)c3)nc3cccc(C)n23)cc1	836 s
CCOc1ccc(C(=O)c2ccc(Cl)c(N)c2)cc1	935 s

More lines, now with the values ahead:

RP-LC retention time	Structure (SMILES)
916 s	CCN1c2cc(Cl)ccc2C(=O)NC12CCN(C(=O)Nc1cc(C)ccc1OC)CC2
817 s	COc1ccc(C2C(C(=O)N3CCCC(C)C3)c3cc(OC)c(OC)cc3C(=O)N2C)cc1 (centres undefined)
838 s	CC(C)CN1CCn2cc(S(=O)(=O)NCc3ccc(F)cc3Cl)cc2C1=O
642 s	O=C(NCCN1CCCCC1)c1cc2n(n1)CCCN(Cc1ccc(Cl)cc1)C2=O
572 s	CCN(CC)C(=O)CN1CCN(c2cc(C(=O)O)c3cc(NC(=O)C(C)(C)C)ccc3n2)CC1
1080 s	Cc1ccc(Cl)cc1N1CCN(C(=O)c2ccc3c(c2)NC(=O)C2CCCCN32)CC1 (centres undefined)
757 s	CCN1c2cc(Cl)ccc2C(=O)NC12CCN(C(=O)NCc1ccccc1)CC2
1000 s	Cc1ccc(Cl)cc1N1CCN(c2ccc3cc(S(=O)(=O)N4CCCCC4)ccc3n2)CC1
971 s	CCOC(=O)c1nc(Nc2ccc(F)c(Cl)c2)c2ccccc2n1
649 s	CCOc1ccc(NC(=O)N2CCN(CCn3c(C(F)(F)F)nc4cccnc43)CC2)cc1
790 s	Cc1cc(S(=O)(=O)N2CC(F)(F)C[C@H]2CN2CCc3ccccc3C2)ccc1F
971 s	O=C(COc1ccc(Cl)cc1)Oc1ccc2nc(N3CCOCC3)sc2c1
851 s	Cc1cc(C)cc(NC(=O)C2CCN(S(=O)(=O)c3ccc4[nH]c(=O)sc4c3)CC2)c1
1220 s	Cc1ccc(NC(=O)Cn2nc(N3CCCC(C)C3)c3ccccc3c2=O)cc1F (centres undefined)
642 s	COc1ccc(N2CCN(c3nc(C(=O)NCCN4CCCCC4)cs3)CC2)cc1
761 s	CCOc1ccc(Cl)cc1S(=O)(=O)N1CCC(C(=O)NCCCOC)CC1
848 s	CCOc1cc(=O)n2c(c1C(=O)Nc1ccc(Br)c(C)c1)CCCC2
1100 s	Cc1ccc(NC(=O)Cn2nc(N3CCCCCC3)c3ccccc3c2=O)c(C)c1
1080 s	CC1CC(=O)c2cnc(N3CCN(c4ccc(F)cc4)CC3)nc2C1 (centres undefined)
742 s	CC(C)CNC(=O)CN1CCN(Cc2ccc(F)cc2)C1=O
840 s	CCS(=O)(=O)c1ccc(-c2ccc(NC(=O)c3cc(Cl)ccc3Cl)cc2)nn1
627 s	CC(=O)N1CCN(C(=O)c2cccn2CC(=O)N2CCc3ccccc32)CC1

RP-LC retention time	Structure (SMILES)
858 s	COc1cc(OC)c(NC(=O)CN2C(=O)NC(c3ccc(Cl)cc3)C3=C2COC3=O)cc1Cl (centres undefined)
879 s	COc1ccc2c(CCNC(=O)COc3ccc(Cl)cc3)c[nH]c2c1
1140 s	O=C(c1ccc(Cl)cc1)N1CCc2nc(-c3ccc(Cl)cc3)ncc2C1
993 s	CC1CCN(c2ccc(-c3noc(CNC(=O)c4cccs4)n3)cc2)CC1
641 s	CSc1ccccc1C(=O)NCC1CCN(S(C)(=O)=O)CC1
614 s	Cc1ccc2cc(CCC(=O)NC3CCN(Cc4ccccc4)CC3)c(=O)[nH]c2c1
665 s	CCC(=O)N1CCc2cc(CNC(=O)c3ccnn3C)ccc21
597 s	CC1CCCCN1Cc1nnc(-c2ccccc2)o1 (centres undefined)
769 s	Cc1cc(C(F)(F)F)nn1CC(=O)N1CCC(c2noc(-c3ccccn3)n2)C1 (centres undefined)
1050 s	CCn1cc(-c2nc(CC(=O)Nc3ccccc3Cl)cs2)c2cccnc21
616 s	CN(Cc1ccc(OC(F)(F)F)cc1)C1CCc2nnc(C3CCOCC3)n2CC1 (centres undefined)
663 s	Cc1cnc(C(=O)NC2C[C@H]3CC[C@@H](C2)N3C(=O)c2sccc2C)cn1 (some centres undefined)
671 s	Cc1cccc(N2CC(C(=O)NC3CC3)CC2=O)c1 (centres undefined)
657 s	COCCc1nncn1C1CCN(C(=O)c2cc(Cl)ccc2F)CC1
1180 s	CC(C)c1ccc(-c2noc(N3CCC(C(=O)NC4CCCCC4)CC3)n2)cc1
638 s	CC(NC(=O)c1cn2c(n1)CSCC2)c1ccc(F)cc1 (centres undefined)
581 s	CC(C)CC(=O)Nc1ccc(-n2cnc(C(=O)N3CCN(C(C)C)CC3)c2)nc1
887 s	Clc1ccc(-c2nc(NC3CCCC3)c3ccccc3n2)cc1
831 s	O=S(=O)(c1ccc(C(F)(F)F)cc1)N1CCCC(Cn2cnc3cccnc32)C1 (centres undefined)
954 s	CCn1cc(-c2ccc(Cl)cc2)cc1C(=O)NCCOC
828 s	COc1ccc(CCNC(=O)C2CCN(S(C)(=O)=O)c3ccccc3O2)cc1 (centres undefined)
